In brackets after ≈: the same amount, converted by molar mass. Where no end group is shown, it is not given here.
Legend:
Assay in all cases: microbe, parasite or virus in culture
Format in all cases: cell-based
Bacillus megaterium = tested on: Bacillus megaterium
Method: (§1) The synthesized peptides were screened for antibacterial activity against five strains of G+ bacteria: B. subtilis (Bs, ATCC 23857), C. glutamicum (Cg, ATCC 13032), S. aureus (Sa, ATCC 9144), Micrococcus luteus (Ml), B. megaterium (Bm) (the last two were obtained from professor Olaf B. Styrvold, UiT The Arctic University of Norway).
(§2) Two strains of G- bacteria, P. aeruginosa (Pa, ATCC 27853) and E. coli (Ec, ATCC 25922), were also used. Cultures stored at -80 °C in glycerol were transferred to Müller–Hinton plates (MH, Difco Laboratories, Detroit, MI, USA) and incubated for 24 h at 35 °C. Colonies of each strain were transferred to 5 mL liquid MH medium and left shaking (600 rpm) at room temperature overnight. An aliquot of actively growing bacteria (20 µL) was inoculated in 5 mL MH medium and left shaking for 2 h at room temperature. In order to have a sensitive bioassay, the bacterial cultures were diluted with medium to only 2.5–3 × 10^4 bacteria/mL and an aliquot of 50 µL was added to each well in 96 microwell plates (Thermo Fisher Scientific, Roskilde, Denmark) preloaded with peptide solution (50 µL). The antibacterial assays were performed as previously described. The microtiter plates were incubated for 24 h at 35 °C with optical density (595 nm) recorded every hour using an Envision 2103 multilabel reader, controlled by a Wallac Envision manager (PerkinElmer, Waltham, MA, USA). The minimum inhibitory concentration (MIC) was defined as the sample concentration showing an optical density less than 10% of the negative (growth) control, consisting of bacteria and MQ-H2O. Oxytetracycline (concentrations ranging from 20–0.02 µg/mL, Sigma-Aldrich) and indolicidin (concentration ranging from 200–0.2 µg/mL, Sigma-Aldrich) served as a positive (inhibition) control. The synthetic peptides were tested for antibacterial activity in concentrations ranging from 250 to 0.5 µg/mL in two-fold dilutions. All tests were performed in triplicates.

[1] = tested on: Bacillus subtilis (ATCC 23857)
Method: as §1, §2

[2] = tested on: Corynebacterium glutamicum (ATCC 13032)
Method: as §1, §2

Micrococcus luteus = tested on: Micrococcus luteus
Method: as §1, §2

[3] = tested on: Staphylococcus aureus (ATCC 9144)
Method: as §1, §2

[4] = tested on: Escherichia coli (ATCC 25922)
Method: as §2

[5] = tested on: Pseudomonas aeruginosa (ATCC 27853)
Method: as §2

Aureobasidium pullulans = tested on: Aureobasidium pullulans
Method: (§3) StAMP-1–11 were screened for antifungal activity against C. albicans (Ca, ATCC 10231), A. pullulans (Ap) and Rhodotorula sp. (Rh) (the last two were obtained from professor Arne Tronsmo, The Norwegian University of Life Sciences, Ås, Norway). The antifungal assay was performed as previously described with a few modifications. Briefly, fungal spores were dissolved in potato dextrose broth (Difco Laboratories) with 2% D(+)-glucose (Merck, Darmstadt, Germany) to a concentration of 4 × 10^5 spores/mL. The spores (50 µL) were inoculated on 96 microwell plates (Thermo Fisher Scientific) containing the synthetic peptides (50 µL) and controls (water or antibiotic). The peptides were diluted in MQ-H2O at final concentrations ranging from 250–3.9 µg/mL in two-fold serial dilutions. Triclosan (Sigma-Aldrich, Steinheim, Germany) was used as a positive (antifungal) control (32–0.25 µg/mL), and MQ-H2O as a negative (growth) control. Cultures were grown in room temperature for 24 h (Ca) and 48 h (Ap and Rh). Growth inhibition was determined by measuring OD values at 600 nm by a microplate reader (Synergy H1 Hybrid Multi-Mode Reader, BioTek, Winooski, VT, USA). […] All experiments were done in triplicate.

[6] = tested on: Candida albicans (ATCC 10231)
Method: as §3

Rhodotorula sp. = tested on: Rhodotorula sp.
Method: as §3

[7] = potato dextrose broth with 2% glucose, room temperature 48 h, OD 600 nm, >90% inhibition, triplicate

Row | Compound | Antimicrobial Activity (MIC) Bm (Bacillus megaterium; Bacillus, 24 h) | Antimicrobial Activity (MIC) Bs ([1]; ATCC 23857, 24 h) | Antimicrobial Activity (MIC) Cg ([2]; ATCC 13032, 24 h) | Antimicrobial Activity (MIC) Ml (Micrococcus luteus; 24 h) | Antimicrobial Activity (MIC) Sa ([3]; ATCC 9144, 24 h) | Antimicrobial Activity (MIC) Ec ([4]; ATCC 25922, 24 h) | Antimicrobial Activity (MIC) Pa ([5]; ATCC 27853, 24 h) | Antimicrobial Activity (MIC) Ap (Aureobasidium pullulans; 48 h) | Antimicrobial Activity (MIC) Ca ([6]; ATCC 10231, 24 h) | Antimicrobial Activity (MIC) Rh (Rhodotorula sp.; 48 h) | further results
1 | GKKWGWWKAK-NH2 [StAMP-6] | 1.0 µg/mL | 3.9 µg/mL | 3.9 µg/mL | 62.5 µg/mL | 250 µg/mL | 62.5 µg/mL | >250 µg/mL | 62.5 µg/mL | 62.5 µg/mL | 31.3 µg/mL | –
2 | GKKPGGWKAK-NH2 [StAMP-1] | 250 µg/mL | >250 µg/mL | 250 µg/mL | >250 µg/mL | >250 µg/mL | >250 µg/mL | >250 µg/mL | >250 µg/mL | >250 µg/mL | >250 µg/mL | –
3 | GKKWGGWKAK-NH2 [StAMP-2] | 3.9 µg/mL | 125 µg/mL | 31.3 µg/mL | 250 µg/mL | >250 µg/mL | >250 µg/mL | >250 µg/mL | 62.5 µg/mL | 125 µg/mL | 62.5 µg/mL | –
4 | GRRWWWWRAR-NH2 [StAMP-10] | 3.9 µg/mL | 7.8 µg/mL | 7.8 µg/mL | 15.6 µg/mL | 62.5 µg/mL | 15.6 µg/mL | 31.3 µg/mL | 62.5 µg/mL | 62.5 µg/mL | 15.6 µg/mL | –
5 | CC[C@H](C)[C@H](N)C(=O)N[C@@H](CC(C)C)C(=O)N1CCC[C@H]1C(=O)N[C@@H](Cc1c[nH]c2ccccc12)C(=O)N[C@@H](CCCCN)C(=O)N[C@@H](Cc1c[nH]c2ccccc12)C(=O)N1CCC[C@H]1C(=O)N[C@@H](Cc1c[nH]c2ccccc12)C(=O)N[C@@H](Cc1c[nH]c2ccccc12)C(=O)N1CCC[C@H]1C(=O)N[C@@H](Cc1c[nH]c2ccccc12)C(=O)N[C@@H](CCCNC(=N)N)C(=O)N[C@@H](CCCNC(=N)N)C(N)=O [Indolicidin, reference compound] | – | – | – | – | – | – | – | – | – | – | Antimicrobial Activity (MIC) Bm (Bacillus megaterium; Bacillus megaterium, MH medium, 24 h at 35 °C, OD 595 nm <10% of growth control, triplicates): 3.1 µg/mL; Antimicrobial Activity (MIC) Bs ([1]; Bacillus subtilis, MH medium, 24 h at 35 °C, OD 595 nm <10% of growth control, triplicates): 6.3 µg/mL; Antimicrobial Activity (MIC) Cg ([2]; Corynebacterium glutamicum, MH medium, 24 h at 35 °C, OD 595 nm <10% of growth control, triplicates): 1.6 µg/mL; Antimicrobial Activity (MIC) Ml (Micrococcus luteus; Micrococcus luteus, MH medium, 24 h at 35 °C, OD 595 nm <10% of growth control, triplicates): 12.5 µg/mL; Antimicrobial Activity (MIC) Sa ([3]; Staphylococcus aureus, MH medium, 24 h at 35 °C, OD 595 nm <10% of growth control, triplicates): 12.5 µg/mL; Antimicrobial Activity (MIC) Ec ([4]; Escherichia coli, MH medium, 24 h at 35 °C, OD 595 nm <10% of growth control, triplicates): 25.0 µg/mL; Antimicrobial Activity (MIC) Pa ([5]; Pseudomonas aeruginosa, MH medium, 24 h at 35 °C, OD 595 nm <10% of growth control, triplicates): >250 µg/mL; Antimicrobial Activity (MIC) Ap (Aureobasidium pullulans; [7]): 25.0 µg/mL; Antimicrobial Activity (MIC) Ca ([6]; potato dextrose broth with 2% glucose, room temperature 24 h, OD 600 nm, >90% inhibition, triplicate): 100 µg/mL; Antimicrobial Activity (MIC) Rh (Rhodotorula sp.; [7]): 25.0 µg/mL
6 | GRRPLLLRAR-NH2 [StAMP-11] | 7.8 µg/mL | >250 µg/mL | 31.3 µg/mL | 62.5 µg/mL | >250 µg/mL | >250 µg/mL | >250 µg/mL | 250 µg/mL | 125 µg/mL | 31.3 µg/mL | –
7 | GKKWWGWKAK-NH2 [StAMP-5] | 1.0 µg/mL | 15.6 µg/mL | 2.0 µg/mL | 15.6 µg/mL | >250 µg/mL | 31.3 µg/mL | 250 µg/mL | 31.3 µg/mL | 31.3 µg/mL | 15.6 µg/mL | –
8 | CN(C)[C@@H]1C(O)=C(C(N)=O)C(=O)[C@@]2(O)C(O)=C3C(=O)c4c(O)cccc4[C@@](C)(O)[C@H]3[C@H](O)[C@@H]12 [Oxytetracycline, reference compound] | – | – | – | – | – | – | – | – | – | – | MIC (Bacillus megaterium; Priestia megaterium, Bacillus megaterium, MH medium, 24 h at 35 °C, OD 595 nm <10% of growth control, triplicates, read-out: Antimicrobial Activity (MIC) Bm): 0.6 µg/mL (≈ 1.3 µM); MIC ([1]; ATCC23857, Bacillus subtilis, MH medium, 24 h at 35 °C, OD 595 nm <10% of growth control, triplicates, read-out: Antimicrobial Activity (MIC) Bs): 10 µg/mL (≈ 21.7 µM); MIC ([2]; ATCC13032, Corynebacterium glutamicum, MH medium, 24 h at 35 °C, OD 595 nm <10% of growth control, triplicates, read-out: Antimicrobial Activity (MIC) Cg): 0.2 µg/mL (≈ 0.434 µM); MIC (Micrococcus luteus; Micrococcus luteus, MH medium, 24 h at 35 °C, OD 595 nm <10% of growth control, triplicates, read-out: Antimicrobial Activity (MIC) Ml): 1.3 µg/mL (≈ 2.82 µM); MIC ([3]; ATCC9144, Staphylococcus aureus, MH medium, 24 h at 35 °C, OD 595 nm <10% of growth control, triplicates, read-out: Antimicrobial Activity (MIC) Sa): 0.04 µg/mL (≈ 0.0869 µM); MIC ([4]; ATCC25922, Escherichia coli, MH medium, 24 h at 35 °C, OD 595 nm <10% of growth control, triplicates, read-out: Antimicrobial Activity (MIC) Ec): 1.3 µg/mL (≈ 2.82 µM); MIC ([5]; ATCC27853, Pseudomonas aeruginosa, MH medium, 24 h at 35 °C, OD 595 nm <10% of growth control, triplicates, read-out: Antimicrobial Activity (MIC) Pa): 2.5 µg/mL (≈ 5.43 µM)
9 | Oc1cc(Cl)ccc1Oc1ccc(Cl)cc1Cl [Triclosan, reference compound] | – | – | – | – | – | – | – | – | – | – | MIC (Aureobasidium pullulans; Aureobasidium pullulans, 48 h, read-out: Antimicrobial Activity (MIC) Ap): 3.1 µg/mL; MIC ([6]; Candida albicans, ATCC10231, 24 h, read-out: Antimicrobial Activity (MIC) Ca): 3.1 µg/mL; MIC (Rhodotorula sp.; Rhodotorula, 48 h, read-out: Antimicrobial Activity (MIC) Rh): 1.6 µg/mL

Source: PMC7432809, “Antimicrobial Activity of Small Synthetic Peptides Based on the Marine Peptide Turgencin A: Prediction of Antimicrobial Peptide Sequences in a Natural Peptide and Strategy for Optimization of Potency” (International Journal of Molecular Sciences, 2020)
